IC50 and melting point data for seven molecules are collected here from patent US7273873B2, “Camptothecins with a modified lactone ring” (Sigma-Tau Industrie Farmaceutiche Riunite S.p.A., priority 2002, dated 2007).

Structures are written as SMILES. Like-named read-outs stand apart in the source and are kept apart here.

The subject of series [1] is NCI-H460. Kind of series: Antiproliferative (cytotoxicity) test, sulforhodamine B, NCI-H460 cells. It is filed as cell-based, human. From the text: The cytotoxic activity of the compounds according to the present invention has been assayed in cell systems of human tumour cells, using the antiproliferative activity test as the method of evaluating the cytotoxic potential.
The cell line used is a non-microcytoma pulmonary adenocarcinoma called NCI H460, belonging to the NSCLC (non small cell lung cancer) class.
To evaluate the effect of the compounds according to the present invention, their cytotoxocity against the non-microcytoma lung cancer cell line (NCI-H460) was evaluated. Cells from the American Type Culture Collection (ATCC) were maintained in culture in RPMI 1640 (GIBCO) containing 10% foetal calf serum and gentamicin sulphate at a concentration of 50 µg/ml.
The cells were seeded in a volume of 250 μl in 96-well plates and incubated for 24 h at 37° C. The next day the study compounds were added at scalar concentrations from 1 μM to 0.004 μM, and the cells were incubated for another 2 h at 37° C. in a humidified atmosphere containing 5% CO2. The cells were washed 3 times, overturning the plates each time and adding PBS. 200 μl/well of RPMI 1640 medium containing 10% FCS were added and the plates were incubated at 37° C. for a further 72 h. On day 5, the growth medium was removed by overturning the plates, and 200 μl/well of PBS and 50 μl of 80% cold TCA were added. The plates were then incubated in ice for at least 1 h. The TCA was removed by overturning; the plates were washed 3 times by immersion in distilled water and dried first on blotting paper and then under a hot air jet. 200 μl of 0.4% sulforodamine B in 1% acetic acid were added to all wells. The plates were incubated at room temperature for a further 30 minutes. The sulforodamine B was removed by overturning; the plates were washed by immersion 3 times in 1% acetic acid and then dried first on blotting paper and then with a jet of hot air. 200 μl of Tris base 10 mM were added to all wells and the plates were subjected to stirring for at least 20 minutes. The optical density was measured using a Multiskan spectrophotometer at 540 nm.
Table 1 presents the IC50 values, that is to say the concentration capable of inhibiting 50% of cell survival, for each compound examined, processed using ALLFIT software.

Where [2] appears, read: 2 h exposure, 72 h recovery, sulforodamine B, concentration inhibiting 50% of cell survival, read-out: NCI-H460 IC50.

Turning to `CCC1(CC(=O)O)OC(=O)c2c1cc1n(c2=O)Cc2cc3ccccc3nc2-1` (centres unmarked) [ST2085, (3-ethyl-1,13-dioxo-11,13-dihydro-1H,3H-furor[3′,4′:6,7]indolizino[1,2-b]quinolin-3-yl)acetic acid], the IC50 – broadly, the concentration at which inhibition is half-maximal – in series [1] (setting [2]) was more than 1000 nM. On to `CCC1(O)CC(=O)OCc2c1cc1n(c2=O)Cc2c-1nc1ccccc1c2C=NOC(C)(C)C` (centres unmarked) [ST2127, R,S-7-(1-t-butoxy)iminomethyl-homocamptothecin], for which the IC50 in series [1] (setting [2]) is 26 nM.

`CCC1(CC(=O)OC(C)(C)C)OC(=O)c2c1cc1n(c2=O)Cc2cc3ccccc3nc2-1` (centres unmarked) [ST2084, Ter-butyl ester of (3-ethyl-1,13-dioxo-11,13-dihydro-1H,3H-furo[3′,4′:6,7]indolizino[1,2-b]quinolin-3-yl)acetic acid]: the IC50 in series [1] (setting [2]) is more than 1000 nM. For the molecule `CCC1(CC(=O)O)OC(=O)c2c1cc1n(c2=O)Cc2c-1nc1ccccc1c2/C=N/OC(C)(C)C` (centres unmarked) [ST2196, {10-[(E)-(ter-butoxyimino)methyl]-3-ethyl-1,13-dioxo-11,13-dihydro-1H,3H-furo[3′,4′:6.7]indolizino[1,2-b]quinolin-3-yl} acetic acid], the IC50 in series [1] (setting [2]) was more than 1000 nM.

For `CCC1(O)CC(=O)OCc2c1cc1n(c2=O)Cc2c-1nc1ccccc1c2/C=N/OCc1ccccc1` (centres unmarked) [ST2143, R,S-7-benzyloxyiminomethyl-homocamptothecin], in series [1] (setting [2]), the IC50 was 7 nM. For `CCC1(CC(=O)O)OC(=O)c2c1cc1n(c2=O)Cc2c-1nc1ccccc1c2/C=N/OCc1ccccc1` (centres unmarked) [ST2285, (10-{(E)-[(benzyloxy)imino]methyl}-3-ethyl-1,13-dioxo-11,13-dihydro-1H,3H-furo[3′,4′:6,7]indolizino[1,2-b]quinolin-3-yl)-acetic acid], the melting point (in general, the temperature, or range, at which the solid turns liquid) was 188 °C (dec.). For the same molecule, the IC50 in series [1] (Homo sapiens, NCI-H460, 2 h exposure, 72 h recovery, sulforodamine B, concentration inhibiting 50% of cell survival, read-out: NCI-H460 IC50) is more than 1000 nM. In the case of `CCC1(O)CC(=O)OCc2c1cc1n(c2=O)Cc2c-1nc1ccccc1c2C=NOC(C)(C)C` (centres unmarked) [ST2523], in series [1] (H460 cells, isolated enantiomers of ST2127, read-out: IC50 (H460)), the IC50 was more than 200 nM.
